The target of test [1] is T1, Alpha-2A adrenergic receptor (Homo sapiens, UniProt P08913). Also: in other assays of this panel Not Active means under 50% inhibition at 10 µM.
T1 sequence (P08913 whole entry): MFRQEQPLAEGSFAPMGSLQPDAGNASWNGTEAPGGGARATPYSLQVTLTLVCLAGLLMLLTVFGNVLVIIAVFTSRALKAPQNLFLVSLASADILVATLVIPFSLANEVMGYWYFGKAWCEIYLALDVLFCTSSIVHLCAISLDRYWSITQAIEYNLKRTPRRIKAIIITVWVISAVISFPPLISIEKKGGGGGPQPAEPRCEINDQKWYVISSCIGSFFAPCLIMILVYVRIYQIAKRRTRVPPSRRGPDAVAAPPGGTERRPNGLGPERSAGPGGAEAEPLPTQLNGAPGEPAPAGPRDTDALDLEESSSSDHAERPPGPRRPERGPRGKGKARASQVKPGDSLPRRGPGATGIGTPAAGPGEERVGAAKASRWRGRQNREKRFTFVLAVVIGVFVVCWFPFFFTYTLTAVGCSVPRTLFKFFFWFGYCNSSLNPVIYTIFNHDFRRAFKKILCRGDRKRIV
Format: cell membranes, Sf9, Membrane. As to conditions: for IC50: sf9.

Test [2] has as its target T2, Type-2 angiotensin II receptor (Homo sapiens, UniProt P50052). Also: in other assays of this panel Not Active means under 50% inhibition at 10 µM.
T2 sequence (P50052 whole entry): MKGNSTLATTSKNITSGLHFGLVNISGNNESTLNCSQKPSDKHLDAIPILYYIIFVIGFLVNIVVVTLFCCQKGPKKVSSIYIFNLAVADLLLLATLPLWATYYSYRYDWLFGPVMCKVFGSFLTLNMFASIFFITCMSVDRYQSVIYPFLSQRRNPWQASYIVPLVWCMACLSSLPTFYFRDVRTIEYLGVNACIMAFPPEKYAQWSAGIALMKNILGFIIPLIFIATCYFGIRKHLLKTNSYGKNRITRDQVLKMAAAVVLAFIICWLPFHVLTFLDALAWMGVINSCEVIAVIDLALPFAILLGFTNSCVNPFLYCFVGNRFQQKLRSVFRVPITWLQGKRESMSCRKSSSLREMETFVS
Put plainly: biochemical. The format is cell-based, CHO-K1. Conditions: cho-k1.

Test [3] in a line: DRUGMATRIX: Atrial Natriuretic Factor (ANF) radioligand binding (ligand: [125I] ANF (rat)). The format is cell membranes, Cavia porcellus, Dunkin-Hartley, Adrenal gland, Membrane. As to conditions: Not Active = under 50% inhibition at 10 µM.
In test [4] the target is Vascular endothelial growth factor receptor 1 (Homo sapiens, UniProt P17948). Format: cell-based. As to conditions: huvec. Also: in other assays of this panel Not Active means under 50% inhibition at 10 µM.
Chain of Vascular endothelial growth factor receptor 1 (P17948 whole entry): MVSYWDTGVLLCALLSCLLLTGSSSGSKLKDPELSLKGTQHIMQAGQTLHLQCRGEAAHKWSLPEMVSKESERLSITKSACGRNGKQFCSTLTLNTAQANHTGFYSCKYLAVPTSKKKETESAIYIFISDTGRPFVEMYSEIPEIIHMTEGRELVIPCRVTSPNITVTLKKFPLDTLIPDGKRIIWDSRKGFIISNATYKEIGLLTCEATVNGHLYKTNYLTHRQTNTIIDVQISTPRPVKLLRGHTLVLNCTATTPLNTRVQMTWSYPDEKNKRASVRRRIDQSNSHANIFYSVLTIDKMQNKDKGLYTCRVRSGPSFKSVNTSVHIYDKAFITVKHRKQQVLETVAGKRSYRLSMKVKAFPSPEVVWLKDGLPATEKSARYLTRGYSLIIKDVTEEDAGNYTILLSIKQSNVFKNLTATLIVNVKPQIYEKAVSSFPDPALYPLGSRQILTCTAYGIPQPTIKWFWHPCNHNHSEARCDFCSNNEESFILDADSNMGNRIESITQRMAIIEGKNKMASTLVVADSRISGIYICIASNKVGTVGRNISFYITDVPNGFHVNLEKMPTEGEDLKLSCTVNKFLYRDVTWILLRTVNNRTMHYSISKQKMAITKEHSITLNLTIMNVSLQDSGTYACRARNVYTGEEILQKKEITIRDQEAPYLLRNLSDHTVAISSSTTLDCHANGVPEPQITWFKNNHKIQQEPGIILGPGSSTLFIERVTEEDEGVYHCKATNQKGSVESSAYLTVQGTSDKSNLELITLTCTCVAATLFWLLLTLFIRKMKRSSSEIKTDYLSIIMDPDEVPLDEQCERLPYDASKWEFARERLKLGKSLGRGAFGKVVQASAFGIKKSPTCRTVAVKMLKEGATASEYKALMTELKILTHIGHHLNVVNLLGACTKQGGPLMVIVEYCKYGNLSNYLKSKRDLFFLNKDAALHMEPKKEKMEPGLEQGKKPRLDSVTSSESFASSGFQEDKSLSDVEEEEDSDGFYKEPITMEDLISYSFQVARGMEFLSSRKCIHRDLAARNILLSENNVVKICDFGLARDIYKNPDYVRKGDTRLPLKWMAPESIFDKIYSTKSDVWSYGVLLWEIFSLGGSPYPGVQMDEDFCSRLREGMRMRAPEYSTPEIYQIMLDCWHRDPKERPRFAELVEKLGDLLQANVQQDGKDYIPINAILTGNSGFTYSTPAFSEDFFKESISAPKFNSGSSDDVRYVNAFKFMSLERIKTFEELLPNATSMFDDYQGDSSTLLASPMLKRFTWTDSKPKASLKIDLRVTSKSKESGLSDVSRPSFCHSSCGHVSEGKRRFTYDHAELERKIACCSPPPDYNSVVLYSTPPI
Another test concerns the target Vasopressin V1a receptor (Homo sapiens, UniProt P37288). The format is cell membranes, Membrane. As to conditions: hek293. Also: in other assays of this panel Not Active means under 50% inhibition at 10 µM.
Test [5] in a line: DRUGMATRIX: Glutamate, Kainate radioligand binding (ligand: [3H] Kainic acid). The format is cell membranes, Rattus norvegicus, Wistar, Brain, Membrane. As to conditions: Not Active = under 50% inhibition at 10 µM.
Test [6] deals with T3, Nitric oxide synthase, inducible (Mus musculus, UniProt P29477).
T3 sequence (P29477 whole entry): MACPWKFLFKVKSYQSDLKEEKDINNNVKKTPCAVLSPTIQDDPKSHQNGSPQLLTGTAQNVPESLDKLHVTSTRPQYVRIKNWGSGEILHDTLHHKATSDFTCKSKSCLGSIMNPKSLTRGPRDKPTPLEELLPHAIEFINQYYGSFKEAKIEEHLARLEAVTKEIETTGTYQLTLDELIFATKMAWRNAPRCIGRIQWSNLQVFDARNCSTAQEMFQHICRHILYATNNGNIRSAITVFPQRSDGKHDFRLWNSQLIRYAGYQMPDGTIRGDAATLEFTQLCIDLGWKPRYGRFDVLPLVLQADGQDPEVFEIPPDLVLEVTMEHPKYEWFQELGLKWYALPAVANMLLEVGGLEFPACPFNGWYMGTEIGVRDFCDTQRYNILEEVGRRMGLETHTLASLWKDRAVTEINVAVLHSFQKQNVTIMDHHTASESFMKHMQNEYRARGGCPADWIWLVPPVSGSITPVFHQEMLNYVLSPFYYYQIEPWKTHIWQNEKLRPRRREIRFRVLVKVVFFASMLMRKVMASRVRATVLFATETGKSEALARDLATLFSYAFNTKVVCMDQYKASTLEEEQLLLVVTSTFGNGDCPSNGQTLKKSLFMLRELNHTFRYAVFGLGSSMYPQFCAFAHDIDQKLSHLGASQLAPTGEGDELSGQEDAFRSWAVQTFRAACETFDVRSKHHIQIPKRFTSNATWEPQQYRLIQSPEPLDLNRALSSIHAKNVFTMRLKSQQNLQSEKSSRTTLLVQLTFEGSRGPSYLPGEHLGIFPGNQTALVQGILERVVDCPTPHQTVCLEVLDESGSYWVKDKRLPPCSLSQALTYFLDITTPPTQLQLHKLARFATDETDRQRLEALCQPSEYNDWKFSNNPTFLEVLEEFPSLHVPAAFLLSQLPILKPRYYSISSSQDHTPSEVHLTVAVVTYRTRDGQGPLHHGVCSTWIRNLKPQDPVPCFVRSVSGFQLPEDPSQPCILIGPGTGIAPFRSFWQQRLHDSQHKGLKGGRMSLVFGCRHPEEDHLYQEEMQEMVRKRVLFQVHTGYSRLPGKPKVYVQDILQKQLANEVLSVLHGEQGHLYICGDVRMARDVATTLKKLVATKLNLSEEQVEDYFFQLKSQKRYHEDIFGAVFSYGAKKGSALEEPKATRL
Details: species or system Escherichia coli.

Test [7] in a line: DRUGMATRIX: Phorbol Ester radioligand binding (ligand: [3H] PDBu). Format: cell membranes, Mus musculus, ICR, Brain, Membrane. Conditions: Not Active = under 50% inhibition at 10 µM.

A word on the pIC50: it is −log10 of the IC50, conventionally taken in molar units. For orientation: pKi means −log10 of the Ki, conventionally taken in molar units.

pIC50, pKi: −log10 of the molar value.

Chain of Vasopressin V1a receptor (P37288 whole entry): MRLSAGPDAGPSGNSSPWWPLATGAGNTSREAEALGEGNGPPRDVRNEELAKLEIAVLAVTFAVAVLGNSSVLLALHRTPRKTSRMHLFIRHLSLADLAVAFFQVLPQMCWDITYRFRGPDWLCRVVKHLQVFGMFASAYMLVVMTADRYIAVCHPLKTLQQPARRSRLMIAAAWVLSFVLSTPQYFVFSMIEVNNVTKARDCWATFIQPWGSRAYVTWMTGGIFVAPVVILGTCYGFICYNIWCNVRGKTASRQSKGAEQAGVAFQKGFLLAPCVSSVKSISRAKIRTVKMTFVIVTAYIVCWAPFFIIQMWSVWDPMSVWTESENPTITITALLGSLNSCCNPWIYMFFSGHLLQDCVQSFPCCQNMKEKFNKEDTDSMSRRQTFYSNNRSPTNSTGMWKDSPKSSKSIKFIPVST

Turning to `Cc1ccc(C)c(OCCCC(C)(C)C(=O)O)c1` [GEMFIBROZIL], the IC50 result (in test [1]; in test [2]; in test [3]; in test [4]; against Vasopressin V1a receptor; in test [5]) was “Not Active” throughout. Moreover, the IC50 result in test [6] and in test [7] was “Not Active” throughout. The Ki result in test [3], in test [5] and in test [7] was “Not Active” throughout.
With `O=c1c(-c2ccc(O)cc2)coc2cc(O)cc(O)c12` [GENISTEIN], the IC50 entry (in test [1]; in test [2]; in test [3]; in test [4]; at Vasopressin V1a receptor; in test [5]) was “Not Active” throughout. Further, the IC50 entry in test [6] and in test [7] was “Not Active” throughout. For the same compound, the Ki entry in test [3], in test [5] and in test [7] was “Not Active” throughout.
Regarding `CCC1=C(C)CN(C(=O)NCCc2ccc(S(=O)(=O)NC(=O)N[C@H]3CC[C@H](C)CC3)cc2)C1=O` [GLIMEPIRIDE], the IC50 result (in test [1]; in test [2]; in test [3]; in test [4]; on Vasopressin V1a receptor; in test [5]) was “Not Active” in each case. For the same compound, the IC50 entry in test [6] and in test [7] was “Not Active” each time. The Ki entry in test [3], in test [5] and in test [7] was “Not Active” throughout.
As to `Nc1cc(-c2ccncc2)c[nH]c1=O` [INAMRINONE], the IC50 result (in test [1]; in test [2]; in test [3]; in test [4]; at Vasopressin V1a receptor; in test [5]) was “Not Active” each time. The IC50 result in test [6] and in test [7] was “Not Active” each time. Further, the Ki result in test [3], in test [5] and in test [7] was “Not Active” in each case.
On to `CCCCC1=NC2(CCCC2)C(=O)N1Cc1ccc(-c2ccccc2-c2nnn[nH]2)cc1` [IRBESARTAN], for which the IC50 entry (in test [1]; in test [2]; in test [3]; in test [4]; against Vasopressin V1a receptor; in test [5]) was “Not Active” throughout. In addition, the IC50 entry in test [6] and in test [7] was “Not Active” each time. Also, the Ki result in test [3], in test [5] and in test [7] was “Not Active” throughout.
`CN1CCC(=C2c3ccccc3CC(=O)c3sccc32)CC1` [KETOTIFEN]: the pIC50 in test [1] (read-out: IC50) was 5.66. Further, in test [1] (read-out: Ki), the negative-log Ki (pKi) is 6.09. Also, the IC50 result (in test [2]; in test [3]; in test [4]; against Vasopressin V1a receptor; in test [5]; in test [6]) was “Not Active” in each case. The IC50 result in test [7] is “Not Active”. The Ki entry in test [3], in test [5] and in test [7] was “Not Active” each time.
For `N[C@@H](Cn1ccc(=O)c(O)c1)C(=O)O` [L-MIMOSINE], the IC50 result (in test [1]; in test [2]; in test [3]; in test [4]; against Vasopressin V1a receptor; in test [5]) was “Not Active” throughout. Further, the IC50 entry in test [6] and in test [7] was “Not Active” throughout. Further, the Ki result in test [3], in test [5] and in test [7] was “Not Active” in each case.
On to `C[N+](C)(C)C[C@H](O)CC(=O)[O-]` [LEVOCARNITINE], for which the IC50 result (in test [1]; in test [2]; in test [3]; in test [4]; against Vasopressin V1a receptor; in test [5]) was “Not Active” throughout. The IC50 entry in test [6] and in test [7] was “Not Active” in each case. Moreover, the Ki result in test [3], in test [5] and in test [7] was “Not Active” in each case.

For the origin of these results see ChEMBL document CHEMBL1909046, “DrugMatrix in vitro pharmacology data”.
